Measured values from patent publication US20200237746A1, “HSP90 TARGETED CONJUGATES AND PARTICLE FORMULATIONS THEREOF” (TARVEDA THERAPEUTICS, INC., priority 2017, published 2020).
“And” between values parts separate entries of the source, which are not always exact repeats. Equal entries are not always repeated.

How the values were obtained:
in vivo = settings: rat, 1 mg/kg
Description: In addition, rat plasma concentrations of Compound A and Compound A in NP04 formulation were measured over time.

[1] = test system: NCI-H69 xenograft model (small cell lung cancer); assay: Efficacy in NCI-H69 xenograft model: tumor volumes and tumor growth inhibition; assay type: in vivo, mice
Source text: Efficacies of Compound A alone or formulated in nanoparticles were studied with NCI-H69 xenograft model (small cell lung cancer).

Log P of Compound A = assay type: physicochemical; settings: approximate value
[2] = Compound A 25 mg/kg days 1 and 8, Day 5
[3] = Compound A 25 mg/kg days 1 and 8, Day 8
[4] = Compound A 25 mg/kg days 1 and 8, Day 16
[5] = Compound A 25 mg/kg days 1 and 8, Day 19
[6] = Compound A 50 mg/kg days 1 and 8, Day 5, 50 mg/kg
[7] = Compound A 50 mg/kg days 1 and 8, Day 8, 50 mg/kg
[8] = Compound A 50 mg/kg days 1 and 8, Day 11, 50 mg/kg
[9] = Compound A 50 mg/kg days 1 and 8, Day 16, 50 mg/kg
[10] = Compound A 50 mg/kg days 1 and 8, Day 19, 50 mg/kg
[11] = Compound A 50 mg/kg days 1 and 8, Day 22, 50 mg/kg
[12] = Compound A 150 mg/kg days 1 and 8, Day 5, 150 mg/kg
[13] = Compound A 150 mg/kg days 1 and 8, Day 8, 150 mg/kg
[14] = Compound A 150 mg/kg days 1 and 8, Day 11
[15] = Compound A 150 mg/kg days 1 and 8, Day 11, 150 mg/kg
[16] = Compound A 150 mg/kg days 1 and 8, Day 16, 150 mg/kg
[17] = Compound A 150 mg/kg days 1 and 8, Day 19, 150 mg/kg
[18] = Compound A 150 mg/kg days 1 and 8, Day 22, 150 mg/kg

CCc1c2c(nc3ccc(OC(=O)N4CCC(CCn5ccc6cc(-n7c(O)nnc7-c7cc(C(C)C)c(O)cc7O)ccc65)CC4)cc13)-c1cc3c(c(=O)n1C2)COC(=O)[C@]3(O)CC [Compound A, (S)-4,11-diethyl-4-hydroxy-3,14-dioxo-3,4,12,14-tetrahydro-1H-pyrano[3′,4′:6,7]indolizino[1,2-b]quinolin-9-yl 4-(2-(5-(3-(2,4-dihydroxy-5-isopropylphenyl)-5-hydroxy-4H-1,2,4-triazol-4-yl)-1H-indol-1-yl)ethyl)piperidine-1-carboxylate]
AUC(0-inf) (in vivo): 3.93 µM·h | AUC(0-t) (in vivo): 3.93 µM·h | Cmax (in vivo): 11.8 µM | Vd (in vivo): 0.0786 L/kg | clearance (in vivo): 4.82 mL/min/kg | half-life (in vivo): 59.1 min | TV Mean ([1]; Compound A 25 mg/kg days 1 and 8, Day 1): 273.4 mm3 | TGI % [1, 2]: 2.8% | TV Mean [1, 2]: 390.6 mm3 | TGI % [1, 3]: 24.9% | TV Mean [1, 3]: 423.8 mm3 | TV Mean ([1]; Compound A 25 mg/kg days 1 and 8, Day 11): 383.2 mm3 | TGI % ([1]; Compound A 25 mg/kg days 1 and 8, Day 11, 25 mg/kg): 47% | TGI % [1, 4]: 69.3% | TV Mean [1, 4]: 345.4 mm3 | TGI % [1, 5]: 72.2% | TV Mean [1, 5]: 387.4 mm3 | TV Mean ([1]; Compound A 25 mg/kg days 1 and 8, Day 22): 510.4 mm3 | TGI % ([1]; Compound A 25 mg/kg days 1 and 8, Day 22, 25 mg/kg): 70% | TV Mean ([1]; Compound A 25 mg/kg days 1 and 8, Day 26): 654.4 mm3 | TV Mean ([1]; Compound A 25 mg/kg days 1 and 8, Day 31): 866.4 mm3 | TV Mean ([1]; Compound A 50 mg/kg days 1 and 8, Day 1): 273.3 mm3 | TV individual animal ([1]; Compound A 50 mg/kg days 1 and 8, Day 1, 50 mg/kg): 222 mm3 and 255 mm3 | TV Mean ([1]; Compound A 50 mg/kg days 1 and 8, Day 5): 360.1 mm3 | TGI % [1, 6]: 10.42% and 10.4% | TV individual animal [1, 6]: 293 mm3 | TV Mean ([1]; Compound A 50 mg/kg days 1 and 8, Day 8): 377.9 mm3 | TGI % [1, 7]: 33.02% and 33% | TV individual animal [1, 7]: 336 mm3 | TV Mean ([1]; Compound A 50 mg/kg days 1 and 8, Day 11): 267.8 mm3 | TGI % [1, 8]: 62.98% and 63% | TV individual animal [1, 8]: 202 mm3 | TV Mean ([1]; Compound A 50 mg/kg days 1 and 8, Day 16): 166.4 mm3 | TGI % [1, 9]: 85.23% and 85.2% | TV individual animal [1, 9]: 136 mm3 | TV Mean ([1]; Compound A 50 mg/kg days 1 and 8, Day 19): 116.6 mm3 | TGI % [1, 10]: 91.64% and 91.6% | TV individual animal [1, 10]: 103 mm3 | TV Mean ([1]; Compound A 50 mg/kg days 1 and 8, Day 22): 125.6 mm3 | TGI % [1, 11]: 92.63% and 92.6% | TV individual animal [1, 11]: 91 mm3 | TV Mean ([1]; Compound A 50 mg/kg days 1 and 8, Day 26): 165.7 mm3 | TV individual animal ([1]; Compound A 50 mg/kg days 1 and 8, Day 26, 50 mg/kg): 116 mm3 | TV Mean ([1]; Compound A 50 mg/kg days 1 and 8, Day 31): 318.9 mm3 | TV individual animal ([1]; Compound A 50 mg/kg days 1 and 8, Day 31, 50 mg/kg): 256 mm3 | TV Mean ([1]; Compound A 150 mg/kg days 1 and 8, Day 1): 273.6 mm^3 | TV individual animal ([1]; Compound A 150 mg/kg days 1 and 8, Day 1, 150 mg/kg): 218 mm^3 and 266 mm^3 and 269 mm^3 and 295 mm^3 and 302 mm^3 and 335 mm^3 and 339 mm^3 and 353 mm^3 and 144 mm^3 and 215 mm^3 | TV Mean ([1]; Compound A 150 mg/kg days 1 and 8, Day 5): 353 mm^3 | TGI % [1, 12]: 12.19% and 12.9% | TV individual animal [1, 12]: 291 mm^3 and 370 mm^3 and 363 mm^3 and 417 mm^3 and 376 mm^3 and 367 mm^3 and 406 mm^3 and 568 mm^3 and 147 mm^3 and 225 mm^3 | TV Mean ([1]; Compound A 150 mg/kg days 1 and 8, Day 8): 343.8 mm^3 | TGI % [1, 13]: 39.06% and 39.1% | TV individual animal [1, 13]: 275 mm^3 and 362 mm^3 and 281 mm^3 and 413 mm^3 and 354 mm^3 and 393 mm^3 and 397 mm^3 and 595 mm^3 and 168 mm^3 and 200 mm^3 | TGI % [1, 14]: 65.44% | TV Mean [1, 14]: 250 mm^3 | TGI % [1, 15]: 65.4% | TV individual animal [1, 15]: 189 mm^3 and 236 mm^3 and 217 mm^3 and 318 mm^3 and 264 mm^3 and 322 mm^3 and 285 mm^3 and 436 mm^3 and 99 mm^3 and 134 mm^3 | TV Mean ([1]; Compound A 150 mg/kg days 1 and 8, Day 16): 109.7 mm^3 | TGI % [1, 16]: 90.26% and 90.3% | TV individual animal [1, 16]: 89 mm^3 and 108 mm^3 and 90 mm^3 and 132 mm^3 and 123 mm^3 and 138 mm^3 and 135 mm^3 and 173 mm^3 and 46 mm^3 and 63 mm^3 | TV Mean ([1]; Compound A 150 mg/kg days 1 and 8, Day 19): 77.9 mm^3 | TGI % [1, 17]: 94.41% and 94.4% | TV individual animal [1, 17]: 55 mm^3 and 100 mm^3 and 85 mm^3 and 95 mm^3 and 74 mm^3 and 121 mm^3 and 39 mm^3 and 135 mm^3 and 33 mm^3 and 42 mm^3 | TV Mean ([1]; Compound A 150 mg/kg days 1 and 8, Day 22): 63.5 mm^3 | TGI % [1, 18]: 96.27% and 96.3% | TV individual animal [1, 18]: 46 mm^3 and 64 mm^3 and 72 mm^3 and 85 mm^3 and 66 mm^3 and 89 mm^3 and 71 mm^3 and 68 mm^3 and 27 mm^3 and 47 mm^3 | TV Mean ([1]; Compound A 150 mg/kg days 1 and 8, Day 26): 51.8 mm^3 | TV individual animal ([1]; Compound A 150 mg/kg days 1 and 8, Day 26, 150 mg/kg): 45 mm^3 and 52 mm^3 and 68 mm^3 (2×) and 61 mm^3 and 83 mm^3 and 77 mm^3 and 41 mm^3 and 4 mm^3 and 19 mm^3 | TV Mean ([1]; Compound A 150 mg/kg days 1 and 8, Day 31): 13.5 mm^3 | TV individual animal ([1]; Compound A 150 mg/kg days 1 and 8, Day 31, 150 mg/kg): 11 mm^3 and 17 mm^3 and 25 mm^3 and 6 mm^3 and 3 mm^3 and 44 mm^3 and 2 mm^3 and 27 mm^3 and 0 mm^3 (2×) | logP (Log P of Compound A): ~6.7
